# Results reported in PubChem BioAssay (NCI).
#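 How tested: cells in 96-well plates exposed to compound for 48 hours at five concentrations. TGI marks complete inhibition of growth.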
# What was measured:
# Assay in all cases: growth of human tumour cells (NCI), 48 h
# 786-0 renal = test system: 786-0 renal
# A498 renal = test system: A498 renal
# A549 NSCLC = test system: A549 NSCLC
# ACHN renal = test system: ACHN renal
# CCRF-CEM leukemia = test system: CCRF-CEM leukemia
# DU-145 prostate = test system: DU-145 prostate
# EKVX NSCLC = test system: EKVX NSCLC
# HCC-2998 colon = test system: HCC-2998 colon
# HCT-116 colon = test system: HCT-116 colon
# HCT-15 colon = test system: HCT-15 colon
# HL-60(TB) leukemia = test system: HL-60(TB) leukemia
# HOP-62 NSCLC = test system: HOP-62 NSCLC
# HOP-92 NSCLC = test system: HOP-92 NSCLC
# HS 578T breast = test system: HS 578T breast
# HT29 colon = test system: HT29 colon
# IGROV1 ovarian = test system: IGROV1 ovarian
# K-562 leukemia = test system: K-562 leukemia
# KM12 colon = test system: KM12 colon
# LOX IMVI melanoma = test system: LOX IMVI melanoma
# M14 melanoma = test system: M14 melanoma
# MALME-3M melanoma = test system: MALME-3M melanoma
# MCF7 breast = test system: MCF7 breast
# MDA-MB-231 breast = test system: MDA-MB-231 breast
# MDA-MB-435 = test system: MDA-MB-435
# MDA-N = test system: MDA-N
# MOLT-4 leukemia = test system: MOLT-4 leukemia
# NCI-H226 lung = test system: NCI-H226 lung
# NCI-H23 lung = test system: NCI-H23 lung
# NCI-H460 lung = test system: NCI-H460 lung
# NCI-H522 lung = test system: NCI-H522 lung
# NCI/ADR-RES ovarian = test system: NCI/ADR-RES ovarian
# OVCAR-3 ovarian = test system: OVCAR-3 ovarian
# OVCAR-4 ovarian = test system: OVCAR-4 ovarian
# OVCAR-5 ovarian = test system: OVCAR-5 ovarian
# OVCAR-8 ovarian = test system: OVCAR-8 ovarian
# PC-3 prostate = test system: PC-3 prostate
# RPMI-8226 leukemia = test system: RPMI-8226 leukemia
# RXF 393 renal = test system: RXF 393 renal
# SF-268 CNS = test system: SF-268 CNS
# SF-295 CNS = test system: SF-295 CNS
# SF-539 CNS = test system: SF-539 CNS
# SK-MEL-28 melanoma = test system: SK-MEL-28 melanoma
# SK-MEL-5 melanoma = test system: SK-MEL-5 melanoma
# SN12C renal = test system: SN12C renal
# SNB-19 CNS = test system: SNB-19 CNS
# SNB-75 CNS = test system: SNB-75 CNS
# SW-620 colon = test system: SW-620 colon
# T-47D breast = test system: T-47D breast
# TK-10 renal = test system: TK-10 renal
# U251 CNS = test system: U251 CNS
# UACC-257 melanoma = test system: UACC-257 melanoma
# UACC-62 melanoma = test system: UACC-62 melanoma
# UO-31 renal = test system: UO-31 renal
smiles,measurement,setting,value
O=C(C1OC1c1ccc(Br)cc1O)C12CC3CC(CC(C3)C1)C2 (stereo not drawn),TGI,786-0 renal,32.4 µM
same,TGI,A498 renal,> 100 µM
same,TGI,A549 NSCLC,> 100 µM
same,TGI,ACHN renal,> 100 µM
same,TGI,CCRF-CEM leukemia,> 100 µM
same,TGI,DU-145 prostate,> 100 µM
same,TGI,EKVX NSCLC,> 100 µM
same,TGI,HCC-2998 colon,47.6 µM
same,TGI,HCT-116 colon,30.9 µM
same,TGI,HCT-15 colon,47 µM
same,TGI,HL-60(TB) leukemia,40.9 µM
same,TGI,HOP-62 NSCLC,67.9 µM
same,TGI,HOP-92 NSCLC,48.8 µM
same,TGI,HS 578T breast,47.8 µM
same,TGI,HT29 colon,> 100 µM
same,TGI,IGROV1 ovarian,> 100 µM
same,TGI,K-562 leukemia,44.8 µM
same,TGI,KM12 colon,41.4 µM
same,TGI,LOX IMVI melanoma,28.7 µM
same,TGI,M14 melanoma,38.6 µM
same,TGI,MALME-3M melanoma,42.1 µM
same,TGI,MCF7 breast,> 100 µM
same,TGI,MDA-MB-231 breast,43.6 µM
same,TGI,MDA-MB-435,30.4 µM
same,TGI,MDA-N,32.8 µM
same,TGI,MOLT-4 leukemia,66.7 µM
same,TGI,NCI-H226 lung,> 100 µM
same,TGI,NCI-H23 lung,81.3 µM
same,TGI,NCI-H460 lung,85.2 µM
same,TGI,NCI-H522 lung,45.2 µM
same,TGI,NCI/ADR-RES ovarian,> 100 µM
same,TGI,OVCAR-3 ovarian,84.6 µM
same,TGI,OVCAR-4 ovarian,81.4 µM
same,TGI,OVCAR-5 ovarian,> 100 µM
same,TGI,OVCAR-8 ovarian,> 100 µM
same,TGI,PC-3 prostate,58.7 µM
same,TGI,RPMI-8226 leukemia,47.5 µM
same,TGI,RXF 393 renal,72.4 µM
same,TGI,SF-268 CNS,> 100 µM
same,TGI,SF-295 CNS,43 µM
same,TGI,SF-539 CNS,> 100 µM
same,TGI,SK-MEL-28 melanoma,46.8 µM
same,TGI,SK-MEL-5 melanoma,56.8 µM
same,TGI,SN12C renal,30.1 µM
same,TGI,SNB-19 CNS,> 100 µM
same,TGI,SNB-75 CNS,58.1 µM
same,TGI,SW-620 colon,35.4 µM
same,TGI,T-47D breast,> 100 µM
same,TGI,TK-10 renal,> 100 µM
same,TGI,U251 CNS,30.8 µM
same,TGI,UACC-257 melanoma,> 100 µM
same,TGI,UACC-62 melanoma,40.6 µM
same,TGI,UO-31 renal,31.3 µM
